Results on three compounds are retold here after ChEMBL document CHEMBL5360657, “Discovery of the TLR7/8 Antagonist MHV370 for Treatment of Systemic Autoimmune Diseases” (ACS Med Chem Lett, 2023).

Molecules are shown by their SMILES.

The nature of data set [1]: MRT in rat at 1 mg/ml, po or iv. It is filed as ADME, organism-based. As to conditions: in vivo.
Data set [2] is described as follows: AUC in rat at 1 mg/ml, iv. It is filed as ADME. On the set-up: dose 1 mg/ml, route iv. To be noted: in vivo.
A short description of data set [3]: MRT in mouse at 1 mg/ml, po or iv. As to conditions: in vivo. It is filed as ADME, organism-based.
Data set [4] is described as follows: Oral bioavailability in mouse at 1 mg/ml. To be noted: in vivo. It is filed as ADME, organism-based.
Data set [5] has as its target T1, Toll-like receptor 7 (Mus musculus, UniProt P58681).
T1 sequence (P58681 whole entry): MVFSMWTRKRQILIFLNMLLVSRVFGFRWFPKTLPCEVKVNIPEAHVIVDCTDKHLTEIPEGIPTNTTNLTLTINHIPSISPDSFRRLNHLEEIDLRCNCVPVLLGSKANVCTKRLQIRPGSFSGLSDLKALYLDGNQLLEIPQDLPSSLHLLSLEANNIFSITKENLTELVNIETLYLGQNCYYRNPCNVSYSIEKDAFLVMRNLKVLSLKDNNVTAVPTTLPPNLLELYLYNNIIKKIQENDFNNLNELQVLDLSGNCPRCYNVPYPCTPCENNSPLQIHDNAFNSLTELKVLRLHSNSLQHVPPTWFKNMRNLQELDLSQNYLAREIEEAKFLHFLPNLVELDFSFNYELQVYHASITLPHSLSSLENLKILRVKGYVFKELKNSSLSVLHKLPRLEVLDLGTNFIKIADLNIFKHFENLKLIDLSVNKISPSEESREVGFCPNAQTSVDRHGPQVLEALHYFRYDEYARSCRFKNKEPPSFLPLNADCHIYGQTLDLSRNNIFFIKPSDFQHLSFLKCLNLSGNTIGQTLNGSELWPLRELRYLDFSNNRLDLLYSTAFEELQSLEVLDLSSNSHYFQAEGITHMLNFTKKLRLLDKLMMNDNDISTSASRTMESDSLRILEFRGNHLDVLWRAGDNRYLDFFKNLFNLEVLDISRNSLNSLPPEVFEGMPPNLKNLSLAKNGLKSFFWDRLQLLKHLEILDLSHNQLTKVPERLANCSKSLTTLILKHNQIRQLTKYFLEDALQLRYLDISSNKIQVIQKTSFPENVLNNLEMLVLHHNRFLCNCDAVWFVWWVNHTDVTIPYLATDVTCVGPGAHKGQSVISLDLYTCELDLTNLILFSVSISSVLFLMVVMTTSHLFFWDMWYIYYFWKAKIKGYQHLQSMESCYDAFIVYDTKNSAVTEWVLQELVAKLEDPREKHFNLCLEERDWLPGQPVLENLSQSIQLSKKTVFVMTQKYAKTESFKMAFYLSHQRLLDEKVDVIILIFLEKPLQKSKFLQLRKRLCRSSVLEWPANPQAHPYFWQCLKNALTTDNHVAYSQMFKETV
As to the kind of experiment: Antagonist activity at TLR7 in mouse Splenocyte assessed as reduction in IFN-alpha level measured after 20 hrs by Spectramax M5 method. It is filed as cell-based.

Data set [6] in a line: Oral bioavailability in rat at 1 mg/ml. It is filed as ADME, organism-based. To be noted: in vivo.
Data set [7] can be described thus: AUC in mouse at 1 mg/ml, po. It is filed as ADME. As to conditions: in vivo. On the set-up: dose 1 mg/ml, route po.
Data set [8] in a line: Cmax in rat at 1 mg/ml, po. As to conditions: in vivo. It is filed as ADME. On the set-up: dose 1 mg/ml, route po.
Data set [9] in a line: Cmax in mouse at 1 mg/ml, po. It is filed as ADME. On the set-up: dose 1 mg/ml, route po. To be noted: in vivo.
Data set [10] has as its target Toll-like receptor 7 (Mus musculus) (UniProt P58681). Kind of data set: In vivo antagonist activity against TLR7 in mouse assessed as inhibition of IFN alpha level at 10 mg/kg, po measured after 2 hrs by LC-MS/MS analysis relative to control.
Data set [11] deals with T2, Toll-like receptor 7 (Homo sapiens, UniProt Q9NYK1).
T2 sequence (Q9NYK1 whole entry): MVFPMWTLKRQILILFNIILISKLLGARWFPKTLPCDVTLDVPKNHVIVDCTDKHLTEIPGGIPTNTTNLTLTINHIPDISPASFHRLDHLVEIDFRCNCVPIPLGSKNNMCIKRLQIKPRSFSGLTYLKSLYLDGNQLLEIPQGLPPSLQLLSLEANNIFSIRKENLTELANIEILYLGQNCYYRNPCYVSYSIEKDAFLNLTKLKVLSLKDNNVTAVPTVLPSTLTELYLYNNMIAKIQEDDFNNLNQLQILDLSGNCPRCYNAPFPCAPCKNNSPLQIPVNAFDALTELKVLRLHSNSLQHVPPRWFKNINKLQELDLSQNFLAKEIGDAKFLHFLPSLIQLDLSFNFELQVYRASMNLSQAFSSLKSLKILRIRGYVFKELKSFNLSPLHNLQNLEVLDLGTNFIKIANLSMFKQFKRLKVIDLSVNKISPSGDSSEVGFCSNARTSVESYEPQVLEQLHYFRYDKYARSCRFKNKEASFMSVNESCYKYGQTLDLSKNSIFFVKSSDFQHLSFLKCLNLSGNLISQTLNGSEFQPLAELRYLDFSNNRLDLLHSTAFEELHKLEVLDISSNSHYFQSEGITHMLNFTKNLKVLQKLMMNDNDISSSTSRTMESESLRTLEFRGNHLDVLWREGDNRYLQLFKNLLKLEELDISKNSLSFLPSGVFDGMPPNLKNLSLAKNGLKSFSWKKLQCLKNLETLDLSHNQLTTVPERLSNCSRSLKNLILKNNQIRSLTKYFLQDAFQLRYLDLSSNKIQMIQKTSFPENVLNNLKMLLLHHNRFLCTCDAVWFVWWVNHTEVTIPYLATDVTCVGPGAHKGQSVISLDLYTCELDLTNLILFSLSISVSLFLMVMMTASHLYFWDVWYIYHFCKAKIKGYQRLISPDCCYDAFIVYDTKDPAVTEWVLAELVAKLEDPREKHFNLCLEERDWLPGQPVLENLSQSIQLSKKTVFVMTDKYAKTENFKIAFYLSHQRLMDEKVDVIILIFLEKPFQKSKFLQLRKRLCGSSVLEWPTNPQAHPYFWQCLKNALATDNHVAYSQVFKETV
As to the kind of experiment: Antagonist activity at TLR7 in human Whole blood cell assessed as reduction in IFN-alpha level measured after 30 mins. It is filed as tissue-based.

Data set [12] is described as follows: Half life in mouse at 3 mg/kg, iv. It is filed as ADME, organism-based. As to conditions: in vivo.
In data set [13] the target is T2, Toll-like receptor 7. Kind of data set: Antagonist activity at TLR7 in human PBMC cells assessed as reduction in IFN alpha measured after 20 hrs by AlphaLISA assay. It is filed as cell-based.

Regarding `Cc1cc(N2CCc3c(c(C)nn3CC34CCC(NC(=O)[C@@H]5COCCN5)(CC3)CC4)C2)c2cnn(C)c2n1` [MHV-370], the mean residence time MRT in [1] is 1.2 h; in data set [3] it was 1 h. The AUC in data set [2] worked out at 1.78 µM·h; in [7] it was 9.16 µM·h. The bioavailability in [4] is 32%; in [6], 52%. Besides, the IC50 is 9 nM on Toll-like receptor 7 [5] and 7 nM at Toll-like receptor 7 [11]. Moreover, the Cmax came to 282 nM in [8] and 1860 nM in data set [9]. Besides, the inhibition in vivo at 10 mg/kg in [10] was approximately 100%.

In [12], `Cc1cc(N2CCc3c(c(C)nn3CC34CCC(N)(CC3)CC4)C2)c2cnn(C)c2n1` showed a t1/2 of 2.1 h. Besides, the IC50 worked out at 20 nM on Toll-like receptor 7 [13] and 74 nM at Toll-like receptor 7 [5].

Take `CCNCC(=O)NC12CCC(Cn3nc(C)c4c3CCN(c3cc(C)nc5c3cnn5C)C4)(CC1)CC2`: the MRT in [1] was found to be 2.8 h; in data set [3] it was 2.4 h. The AUC was 1.78 µM·h in [2] and 4.63 µM·h in data set [7]. Further, the bioavailability in data set [4] came to 10%; in data set [6], 12%. For the same compound, the IC50 at Toll-like receptor 7 [13] turned out to be 17 nM. Also, the Cmax in data set [8] worked out at 48 nM; in data set [9], 515 nM.
